Entries after “also recorded” stand apart in the source; their conditions may differ.
Legend:
[1] = system: skeletal muscle lesions; experiment: Oral treatment of skeletal muscle and tendon lesions in patients (MRI, function); type: in vivo, human
Method: A and B are, respectively, front and cross sectional magnetic resonance images (MRI) showing the breaking of the left quadriceps in a patient, immediately before treatment. The presence of a large hematoma, indicated by arrows, may be observed. C and D are, respectively, front and cross sectional MRI showing the quadriceps of the same patient after treatment with 2,5-dihydroxybenzene sulfonic acid (DHBS) (500 mg/day p.o. for two weeks). […] 1 indicates the femur and 2 indicates the femoral vessels.
A is a Magnetic Resonance Image (MRI) of a patient showing the breaking of the right arm brachial biceps one day after the lesion and immediately before the treatment.
Images show the clinical manifestation of the patient referred to in FIG. 12. Before the treatment (1 day after the lesion) a large hematoma (A) and limited flexion (B) and extension (C) of the elbow are observed.
It is a Magnetic Resonance Image (MRI) of a patient showing the breaking of left leg semitendinosus muscle 9 days after the lesion and immediately before starting the treatment.
A is a Magnetic Resonance Image (MRI) of a patient showing the Achilles tendon rupture just before being treated.
The capacity of a 2,5-dihydroxybenzene derivative, the 2,5-dihydroxybenzene sulfonic acid (DHBS) to effectively treat skeletal muscle lesions is shown herein. The efficacy is evident, not only in the images of conventional diagnosis that show the recovery of the muscular damage, but also there is a clear functional recovery of the affected limb.
The first patient's left quadriceps was broken by practicing sports. […] At that moment, the patient starts a daily oral treatment with 500 mg of 2,5-dihydroxybenzene sulfonic acid (DHBS) for two weeks. […] An observation that may be applied to the other cases that support this example.
Other patient has an hematoma and muscular breaking of the brachial biceps, as shown in the magnetic resonance image (MRI) of FIG. 12A. The hematoma can be appreciated externally (FIG. 13A) and the lesion, produced by professional practice (dancing) the day before the consultation, limits the elbow flexion (FIG. 13B) and extension (FIG. 13C).

[2] = system: methacholine induced bronchoconstriction in OVA-sensitized mice; experiment: Experimentally induced (OVA) asthma in mice: methacholine bronchoconstriction and BAL cell count; type: in vivo; details: for methacholine induced bronchoconstriction (Penh): methacholine 5 and 20 mg/mL
Method: Effect of potassium 2,5-diacetoxybenzene sulfonate (DABS) on bronchoconstriction in asthmatic mice treated with methacholine. All the mice were exposed to nebulized methacholine (MC; 5 and 20 mg/ml). Bronchoconstriction was determined as the enhanced pause. (Penh), calculated as described in the corresponding example (example 13).
Effect of potassium 2,5-diacetoxybenzene sulfonate (DABS) on the inflammatory cell count in the bronchoalveolar lavage (BAL) in asthmatic mice.
6-9 week old Balb/c mice were used. The ovoalbumin (OVA)/aluminum complex was obtained after dissolving OVA (500 μg/mL) in PBS, and mixing it with an equal volume of 10% aluminum potassium sulfate at pH 6.5 for 1 hour. After centrifuging the pellet (750×g for 5 minutes) the OVA/aluminum pellet was resuspended in distilled water. On day 0, the mice were injected intraperitoneally injected with 100 μg of OVA/aluminum. Eight days later, the mice were anesthetized and exposed to 250 μg of OVA. Later, they were administered 125 μg of OVA on days 15, 18 and 21. […].
The following treatments were administered to the animals: (i.p.) vehicle from day 2, potassium 2,5-diacetoxybencene sulfonate (DABS; 100 mg/kg/day, i.p.) from day 2, DABS (100 mg/kg/day, i.p.) from day 8 and Combivent (20 μg/200 μg in aerosol) on days 20, 21 and 22, the latter as a reference treatment.
In order to evaluate the pulmonary function, the response to methacholine in conscious mice was determined, 24 hours after the last exposure to OVA. The mice were exposed to increasing methacholine concentrations (5 and 20 mg/mL) in the form of aerosol using an ultrasonic nebulizer during 2 minutes. The degree of bronchoconstriction was expressed as the enhanced pause (Penh) which correlates to the mouse air resistance, impedance and pressure within the pleura. The Penh enh was calculated using the formula Penh=[([…]/Rt−1)×(PEF/PIF)], where Te is expiratory time, Rt is relaxation time, PEF is peak expiratory flow and PIF is peak inspiratory flow x 0.67 coefficient.
After measuring airway hyperreactivity, the mice were sacrificed and the bronchoalveolar lavage (BAL) of the right lung was collected. The total number of cells in the BAL fluid was determined.

[3] = brachial biceps breaking, 1500 mg/day p.o., 20 days, one patient
[4] = left quadriceps breaking, 500 mg/day p.o., two weeks, one patient

Row | Compound | semitendinosus muscle lesion on MRI ([1]; 1500 mg/day p.o., 11 days, started 9 days after lesion, one patient) | Achilles tendon lesion on MRI ([1]; 1500 mg/day p.o., two months, one patient) | elbow flexion and extension [1, 3] | size of the lesion and of the hematoma, brachial biceps [1, 3] | quadriceps hematoma on MRI [1, 4] | quadriceps lesion on MRI [1, 4] | period to functional recovery and resolution vs conventional treatments (antiinflammatories) ([1]; quadriceps breaking, 500 mg/day p.o., two weeks) | flexion and extension capacity of the leg ([1]; quadriceps breaking, 500 mg/day p.o., two weeks, one patient) | reduction of BAL cells compared with Combivent ([2]; 100 mg/kg/day i.p.) | methacholine induced bronchoconstriction (Penh) ([2]; 100 mg/kg/day i.p. from day 2) | methacholine induced bronchoconstriction (Penh) ([2]; 100 mg/kg/day i.p. from day 8) | presence of cells in bronchoalveolar lavage (BAL) ([2]; 100 mg/kg/day i.p., from day 2 or day 8) | increase of Penh after exposure to methacholine vs saline ([2]; DABS groups, 100 mg/kg/day i.p.)
1 | O=S(=O)(O)c1cc(O)ccc1O [DHBS, 2,5-dihydroxybenzenesulfonic acid] | reduced the muscular lesion; also recorded: remarkable reduction in the size of the lesion | marked reduction of said lesion; also recorded: remarkable reduction in the size of the lesion | recovers the functionality of the elbow flexion and extension; also recorded: have been recovered | markedly reduces the size of the lesion and of the hematoma; also recorded: remarkable reduction in the size of the lesion; also recorded: the hematoma has disappeared | can no longer be observed; also recorded: the hematoma has disappeared | recovery of the lesion in the quadriceps | shorter period | able to extend the left leg almost completely; also recorded: almost complete flexion (A) and extension (B) capacity |  |  |  |  | 
2 | CC(=O)Oc1ccc(OC(C)=O)c(S(=O)(=O)[O-])c1.[K+] [DABS, potassium 2,5-diacetoxybenzene sulfonate] |  |  |  |  |  |  |  |  | even more than the treatment with Combivent | completely prevented | completely prevented | significantly reduced | do not show a significant increase

From patent US9060966B2, “Use of 2,5-dihydroxybenzene derivatives for the treatment of arthritis and pain” (priority 2006, dated 2015)
